Results published in US12622968B2, “Formulation for oral delivery of proteins, peptides and small molecules with poor permeability” (R.P. Scherer Technologies, LLC, priority 2019, dated 2026).
Read-outs that look alike come from different tables or passages of the source.

Test: Single dose oral capsule pharmacokinetics of BHV-3500 in dogs (plasma LC-MS/MS)
Type: in vivo, beagle dogs
Details: female, beagle, dog, plasma; for Tmax: read-out: Tmax; for concentration at 1 h: 1 h post-dose; for concentration at 1 h / concentration at 2 h / concentration at 4 h: read-out: BHV-3500 Concentration in Dog Plasma; for concentration at 2 h: 2 h post-dose; for Cmax: read-out: Cmax; for concentration at 4 h: 4 h post-dose; for AUC(0-t): read-out: AUC0-4 hr
Experimental: The pharmacokinetics (PK) of BHV-3500 after a single oral capsule of BHV-3500 in dogs were investigated.
After each dose, blood samples (approximately 3 mL from the jugular vein) for determination of plasma levels of BHV-3500 were obtained from of each dog at six time points (pre-dose; 15, 30, and 60 minutes and 2 and 4 hours post-dose. EDTA was used as the anticoagulant. Plasma samples were frozen at approximately −70′C until analyzed.
For the determination of BHV-3500 in plasma, a 50 μL aliquot from each sample was transferred into the appropriate well of a 96-well plate to which 10 μL of 50% acetonitrile (ACN) in water was added, followed by 250 μL of internal standard solution (10 ng/mL BHV-3500-d8 in ACN). After sealing the plate and vortexing for approximately 5 minutes, the plate was centrifuged at 4,000 rpm for 10 minutes at 4±4° C. A portion (100 μL) of the resulting supernatant was transferred to into the appropriate well (containing 300 μL 0.15% formic acid in water) of another 96-well plate. This plate was sealed and its contents mixed prior to instrumental analysis.
Freshly prepared BHV-3500 standard curves and QC samples were analyzed along with the study samples. Instrument calibrators were prepared by adding 10 μL of a stock BHV-3500 solution to 50 μL of blank dog plasma. Blank dog plasma was sourced from BioIVT (Hicksville, NY) and stored frozen at −20° C. Nominal calibrator concentrations ranged from 2.00 to 200 ng/mL. QC samples were prepared at concentrations of 6.00, 50.0 and 150 ng/mL. Calibrators and QC samples were processed for analysis following the extraction procedure described above.
Calibrator, QC and study samples were analyzed under LC-S/MS instrument conditions detailed in Table 7.
Calibration curves were calculated from the linear regression (weighting factor of 1/x2) of the analyte to internal standard peak area ratios versus the analyte concentrations. Concentrations of analyte in the samples were determined using the peak area ratios and the regression parameters of the calibration curves.
Individual animal plasma BHV-3500 concentration data at scheduled (nominal) sampling times were analyzed using the non-compartmental model f r extravascular administration with Phoenix WinNonlin software (Version 8.1; Certara, Princeton, NJ).
Elimination rate constant values (λz) were calculated by log-linear regression on data points of the terminal phase (using Phoenix WinNonlin's Best Fit Lambda Z Calculation Method option) when allowed by the data; the plasma elimination half-life (t1/2) was calculated as ln(2)/λz. Area under the plasma concentration-time curve values from time zero to the concentration at the 4 hour time point (AUC0-4 hr) were calculated by the linear-up/log-down trapezoidal rule.
Nominal dose levels were used for PK analysis. The PK parameters listed below were evaluated (as applicable and when allowed by the data). • Elimination half-life (t1/2) • Time of occurrence of maximum plasma concentration (Tmax) • Maximum plasma concentration (Cmax) • Area under plasma concentration-time curve [0 to the 4 hour time point; AUC0-4hr]

[1] = po, 50 mg, Group 4, oral capsule, 50 mg BHV-3500, no vehicle, average
[2] = po, 50 mg, Group 4, oral capsule, 50 mg BHV-3500, no vehicle, individual dogs
[3] = po, 50 mg, Group 5, oral capsule, 50 mg BHV-3500 in 900 mg vehicle of Formulation 2 (SEDDS excipients), average
[4] = po, 50 mg, Group 6, oral capsule, 50 mg BHV-3500 in 25 mg DDM, average
[5] = po, 50 mg, Group 6, oral capsule, 50 mg BHV-3500 in 25 mg DDM, individual dogs
[6] = Group 2, oral capsule, 20 mg BHV-3500 in 900 mg vehicle of Formulation 2 (SEDDS excipients), individual dogs

Compound `Cc1cc(C[C@@H](NC(=O)N2CCC(c3cc4ccccc4[nH]c3=O)CC2)C(=O)N2CCN(C3CCN(C)CC3)CC2)cc2cn[nH]c12` [BHV-3500, (R)—N-(3-(7-methyl-1H indazol-5-yl)-1-(4-(1-methylpiperidin-4-yl)piperazin-1-yl)-1-oxopropan-2-yl)-4-(2-oxo-1,2 dihydroquinolin-3-yl)piperidine-1-carboxamide] has a Tmax (po, 20 mg, Group 3, oral capsule, 20 mg BHV-3500 in 25 mg DDM, median) of 2 h, a concentration at 1 h [1] of 3.35 ng/mL and a concentration at 1 h [2] of 2.25 ng/mL. For the same compound, the concentration at 2 h [1] was 6.18 ng/mL, the concentration at 2 h [2] was 7.57 ng/mL and the Cmax [1] was 6.18 ng/mL. The Cmax [2] was 7.57 ng/mL, the Tmax [2] was 2 h and the Tmax (po, 50 mg, Group 4, oral capsule, 50 mg BHV-3500, no vehicle, median) was 2 h. The concentration at 1 h [3] was 11.5 ng/mL, the concentration at 2 h [3] was 40.6 ng/mL and the concentration at 4 h [3] was 7.97 ng/mL. For the same compound, the AUC(0-t) [3] was 70.6 ng·h/mL, the Cmax [3] was 40.6 ng/mL and the Tmax (po, 50 mg, Group 5, oral capsule, 50 mg BHV-3500 in 900 mg vehicle of Formulation 2 (SEDDS excipients), individual dogs) was 2 h. For the same compound, the Tmax (po, 50 mg, Group 5, oral capsule, 50 mg BHV-3500 in 900 mg vehicle of Formulation 2 (SEDDS excipients), median) was 2 h, the concentration at 1 h [4] was 2.42 ng/mL and the concentration at 1 h [5] was 2.42 ng/mL. For the same compound, the concentration at 2 h [4] was 6.05 ng/mL, the concentration at 2 h [5] was 6.05 ng/mL and the concentration at 4 h [4] was 8.67 ng/mL. It also gave a concentration at 4 h [5] of 12 ng/mL, an AUC(0-t) [4] of 17.3 ng·h/mL and a Cmax [4] of 6.59 ng/mL. For the same compound, the Tmax (po, 50 mg, Group 6, oral capsule, 50 mg BHV-3500 in 25 mg DDM, median) was 4 h, the concentration at 1 h [6] was 2.57 ng/mL and the concentration at 4 h [6] was 3.09 ng/mL. For the same compound, the concentration at 4 h (Group 6, oral capsule, 50 mg BHV-3500 in 25 mg DDM, individual dogs) was 5.34 ng/mL.
